Data as given in patent publication US11154529B2, “Phosphaplatin liquid formulations” (Phosplatin Therapeutics Inc., priority 2016, dated 2021).

Experiment: Ready-to-use formulation stability at 25° C./60% RH, 5 mg/mL (R,R)-pyrodach-2 in 10 mM Bicarbonate Buffer at pH 8.6, 10 mL vials
Assay type: physicochemical

O=P1(O)OP(=O)(O)[O][Pt]2([NH][C@@H]3CCCC[C@H]3[NH]2)[O]1 (stereo partly drawn) [(R,R)-pyrodach-2, (R,R)-trans-1,2-cyclohexanediamine-(dihydrogenpyrophosphato)platinum(II)]
Potency (Assay) (1 month): 98.9% | Purity (% Area) (1 month): 97.44% | Unknown Impurities RRT~0.29 (1 month): 0.16% | Unknown Impurities RRT~0.42 (1 month): 0.21% | Unknown Impurities RRT~0.49 (1 month): 0.75% | Unknown Impurities RRT~0.59 (1 month): 0.15% | Unknown Impurities RRT~0.73 (1 month): 1.03% | Unknown Impurities RRT~1.82 (1 month): ND (ND = Not Detected, or <0.05%) | Unknown Impurities RRT~2.85 (1 month): ND (ND = Not Detected, or <0.05%) | Unknown Impurities RRT~3.00 (1 month): ND (ND = Not Detected, or <0.05%) | Unknown Impurities RRT~3.15 (1 month): ND (ND = Not Detected, or <0.05%) | Unknown Impurities RRT~3.30 (1 month): ND (ND = Not Detected, or <0.05%) | Unknown Impurities RRT~3.45 (1 month): ND (ND = Not Detected, or <0.05%) | Unknown Impurities RRT~3.74 (1 month): 0.08% | Unknown Impurities RRT~4.27 (1 month): ND (ND = Not Detected, or <0.05%) | Unknown Impurities RRT~4.99 (1 month): ND (ND = Not Detected, or <0.05%) | pH (1 month): 8.68 | Potency (Assay) (1 week): 101.7% | Purity (% Area) (1 week): 97.74% | Unknown Impurities RRT~0.29 (1 week): 0.11% | Unknown Impurities RRT~0.42 (1 week): 0.05% | Unknown Impurities RRT~0.49 (1 week): 0.78% | Unknown Impurities RRT~0.59 (1 week): 0.06% | Unknown Impurities RRT~0.73 (1 week): 1.12% | Unknown Impurities RRT~1.82 (1 week): ND (ND = Not Detected, or <0.05%) | Unknown Impurities RRT~2.85 (1 week): ND (ND = Not Detected, or <0.05%) | Unknown Impurities RRT~3.00 (1 week): ND (ND = Not Detected, or <0.05%) | Unknown Impurities RRT~3.15 (1 week): ND (ND = Not Detected, or <0.05%) | Unknown Impurities RRT~3.30 (1 week): ND (ND = Not Detected, or <0.05%) | Unknown Impurities RRT~3.45 (1 week): ND (ND = Not Detected, or <0.05%) | Unknown Impurities RRT~3.74 (1 week): ND (ND = Not Detected, or <0.05%) | Unknown Impurities RRT~4.27 (1 week): ND (ND = Not Detected, or <0.05%) | Unknown Impurities RRT~4.99 (1 week): ND (ND = Not Detected, or <0.05%) | pH (1 week): 8.57 | Potency (Assay) (2 month): 100.4% | Purity (% Area) (2 month): 96.45% | Unknown Impurities RRT~0.29 (2 month): 0.19% | Unknown Impurities RRT~0.42 (2 month): 0.56% | Unknown Impurities RRT~0.49 (2 month): 0.79% | Unknown Impurities RRT~0.59 (2 month): 0.26% | Unknown Impurities RRT~0.73 (2 month): 0.97% | Unknown Impurities RRT~1.82 (2 month): ND (ND = Not Detected, or <0.05%) | Unknown Impurities RRT~2.85 (2 month): 0.12% | Unknown Impurities RRT~3.00 (2 month): ND (ND = Not Detected, or <0.05%) | Unknown Impurities RRT~3.15 (2 month): ND (ND = Not Detected, or <0.05%) | Unknown Impurities RRT~3.30 (2 month): ND (ND = Not Detected, or <0.05%) | Unknown Impurities RRT~3.45 (2 month): 0.05% | Unknown Impurities RRT~3.74 (2 month): 0.31% | Unknown Impurities RRT~4.27 (2 month): ND (ND = Not Detected, or <0.05%) | Unknown Impurities RRT~4.99 (2 month): 0.07% | pH (2 month): 8.73 | Potency (Assay) (2 week): 99.9% | Purity (% Area) (2 week): 97.77% | Unknown Impurities RRT~0.29 (2 week): 0.12% | Unknown Impurities RRT~0.42 (2 week): 0.10% | Unknown Impurities RRT~0.49 (2 week): 0.77% | Unknown Impurities RRT~0.59 (2 week): ND (ND = Not Detected, or <0.05%) | Unknown Impurities RRT~0.73 (2 week): 1.17% | Unknown Impurities RRT~1.82 (2 week): ND (ND = Not Detected, or <0.05%) | Unknown Impurities RRT~2.85 (2 week): ND (ND = Not Detected, or <0.05%) | Unknown Impurities RRT~3.00 (2 week): ND (ND = Not Detected, or <0.05%) | Unknown Impurities RRT~3.15 (2 week): ND (ND = Not Detected, or <0.05%) | Unknown Impurities RRT~3.30 (2 week): ND (ND = Not Detected, or <0.05%) | Unknown Impurities RRT~3.45 (2 week): ND (ND = Not Detected, or <0.05%) | Unknown Impurities RRT~3.74 (2 week): ND (ND = Not Detected, or <0.05%) | Unknown Impurities RRT~4.27 (2 week): ND (ND = Not Detected, or <0.05%) | Unknown Impurities RRT~4.99 (2 week): ND (ND = Not Detected, or <0.05%) | pH (2 week): 8.64 | Potency (Assay) (3 month): 101.6% | Purity (% Area) (3 month): 96.08% | Unknown Impurities RRT~0.29 (3 month): 0.27% | Unknown Impurities RRT~0.42 (3 month): 0.76% | Unknown Impurities RRT~0.49 (3 month): 0.78% | Unknown Impurities RRT~0.59 (3 month): 0.25% | Unknown Impurities RRT~0.73 (3 month): 0.92% | Unknown Impurities RRT~1.82 (3 month): ND (ND = Not Detected, or <0.05%) | Unknown Impurities RRT~2.85 (3 month): 0.17% | Unknown Impurities RRT~3.00 (3 month): ND (ND = Not Detected, or <0.05%) | Unknown Impurities RRT~3.15 (3 month): ND (ND = Not Detected, or <0.05%) | Unknown Impurities RRT~3.30 (3 month): ND (ND = Not Detected, or <0.05%) | Unknown Impurities RRT~3.45 (3 month): ND (ND = Not Detected, or <0.05%) | Unknown Impurities RRT~3.74 (3 month): 0.40% | Unknown Impurities RRT~4.27 (3 month): 0.06% | Unknown Impurities RRT~4.99 (3 month): 0.14% | pH (3 month): 9.01 | Potency (Assay) (3 week): 100.3% | Purity (% Area) (3 week): 97.33% | Unknown Impurities RRT~0.29 (3 week): 0.16% | Unknown Impurities RRT~0.42 (3 week): 0.15% | Unknown Impurities RRT~0.49 (3 week): 0.76% | Unknown Impurities RRT~0.59 (3 week): 0.12% | Unknown Impurities RRT~0.73 (3 week): 1.26% | Unknown Impurities RRT~1.82 (3 week): ND (ND = Not Detected, or <0.05%) | Unknown Impurities RRT~2.85 (3 week): ND (ND = Not Detected, or <0.05%) | Unknown Impurities RRT~3.00 (3 week): ND (ND = Not Detected, or <0.05%) | Unknown Impurities RRT~3.15 (3 week): ND (ND = Not Detected, or <0.05%) | Unknown Impurities RRT~3.30 (3 week): ND (ND = Not Detected, or <0.05%) | Unknown Impurities RRT~3.45 (3 week): ND (ND = Not Detected, or <0.05%) | Unknown Impurities RRT~3.74 (3 week): 0.06% | Unknown Impurities RRT~4.27 (3 week): ND (ND = Not Detected, or <0.05%) | Unknown Impurities RRT~4.99 (3 week): ND (ND = Not Detected, or <0.05%) | pH (3 week): 8.67 | Potency (Assay) (4 month): 103.0% | Purity (% Area) (4 month): 95.98% | Unknown Impurities RRT~0.29 (4 month): 0.16% | Unknown Impurities RRT~0.42 (4 month): 0.96% | Unknown Impurities RRT~0.49 (4 month): 0.94% | Unknown Impurities RRT~0.59 (4 month): 0.17% | Unknown Impurities RRT~0.73 (4 month): 0.73% | Unknown Impurities RRT~1.82 (4 month): ND (ND = Not Detected, or <0.05%) | Unknown Impurities RRT~2.85 (4 month): 0.17% | Unknown Impurities RRT~3.00 (4 month): ND (ND = Not Detected, or <0.05%) | Unknown Impurities RRT~3.15 (4 month): ND (ND = Not Detected, or <0.05%) | Unknown Impurities RRT~3.30 (4 month): ND (ND = Not Detected, or <0.05%) | Unknown Impurities RRT~3.45 (4 month): ND (ND = Not Detected, or <0.05%) | Unknown Impurities RRT~3.74 (4 month): 0.58% | Unknown Impurities RRT~4.27 (4 month): 0.06% | Unknown Impurities RRT~4.99 (4 month): 0.20% | pH (4 month): 8.90 | Potency (Assay) (6 month): 99.2% | Purity (% Area) (6 month): 95.03% | Unknown Impurities RRT~0.29 (6 month): 0.22% | Unknown Impurities RRT~0.42 (6 month): 1.29% | Unknown Impurities RRT~0.49 (6 month): 0.80% | Unknown Impurities RRT~0.59 (6 month): 0.32% | Unknown Impurities RRT~0.73 (6 month): 0.82% | Unknown Impurities RRT~1.82 (6 month): ND (ND = Not Detected, or <0.05%) | Unknown Impurities RRT~2.85 (6 month): 0.15% | Unknown Impurities RRT~3.00 (6 month): 0.07% | Unknown Impurities RRT~3.15 (6 month): ND (ND = Not Detected, or <0.05%) | Unknown Impurities RRT~3.30 (6 month): 0.05% | Unknown Impurities RRT~3.45 (6 month): ND (ND = Not Detected, or <0.05%) | Unknown Impurities RRT~3.74 (6 month): 0.69% | Unknown Impurities RRT~4.27 (6 month): 0.08% | Unknown Impurities RRT~4.99 (6 month): 0.36% | pH (6 month): 8.93 | Potency (Assay) (9 month): 100.3% | Purity (% Area) (9 month): 93.82% | Unknown Impurities RRT~0.29 (9 month): 0.15% | Unknown Impurities RRT~0.42 (9 month): 1.88% | Unknown Impurities RRT~0.49 (9 month): 0.84% | Unknown Impurities RRT~0.59 (9 month): 0.32% | Unknown Impurities RRT~0.73 (9 month): 0.43% | Unknown Impurities RRT~1.82 (9 month): 0.05% | Unknown Impurities RRT~2.85 (9 month): 0.32% | Unknown Impurities RRT~3.00 (9 month): ND (ND = Not Detected, or <0.05%) | Unknown Impurities RRT~3.15 (9 month): 0.07% | Unknown Impurities RRT~3.30 (9 month): 0.10% | Unknown Impurities RRT~3.45 (9 month): 0.06% | Unknown Impurities RRT~3.74 (9 month): 0.88% | Unknown Impurities RRT~4.27 (9 month): 0.13% | Unknown Impurities RRT~4.99 (9 month): 0.66% | pH (9 month): 9.08 | Potency (Assay) (12 month): 98.4% | Purity (% Area) (12 month): 92.23% | Unknown Impurities RRT~0.29 (12 month): 0.14% | Unknown Impurities RRT~0.42 (12 month): 2.20% | Unknown Impurities RRT~0.49 (12 month): 0.86% | Unknown Impurities RRT~0.59 (12 month): 0.32% | Unknown Impurities RRT~0.73 (12 month): 0.97% | Unknown Impurities RRT~1.82 (12 month): 0.06% | Unknown Impurities RRT~2.85 (12 month): 0.37% | Unknown Impurities RRT~3.00 (12 month): 0.06% | Unknown Impurities RRT~3.15 (12 month): 0.06% | Unknown Impurities RRT~3.30 (12 month): 0.12% | Unknown Impurities RRT~3.45 (12 month): 0.05% | Unknown Impurities RRT~3.74 (12 month): 1.07% | Unknown Impurities RRT~4.27 (12 month): 0.15% | Unknown Impurities RRT~4.99 (12 month): 1.02% | pH (12 month): 9.07 | Potency (Assay) (Initial): 100.3% | Purity (% Area) (Initial): 98.04% | Unknown Impurities RRT~0.29 (Initial): 0.11% | Unknown Impurities RRT~0.42 (Initial): ND (ND = Not Detected, or <0.05%) | Unknown Impurities RRT~0.49 (Initial): 0.62% | Unknown Impurities RRT~0.59 (Initial): ND (ND = Not Detected, or <0.05%) | Unknown Impurities RRT~0.73 (Initial): 1.05% | Unknown Impurities RRT~1.82 (Initial): ND (ND = Not Detected, or <0.05%) | Unknown Impurities RRT~2.85 (Initial): ND (ND = Not Detected, or <0.05%) | Unknown Impurities RRT~3.00 (Initial): ND (ND = Not Detected, or <0.05%) | Unknown Impurities RRT~3.15 (Initial): ND (ND = Not Detected, or <0.05%) | Unknown Impurities RRT~3.30 (Initial): ND (ND = Not Detected, or <0.05%) | Unknown Impurities RRT~3.45 (Initial): ND (ND = Not Detected, or <0.05%) | Unknown Impurities RRT~3.74 (Initial): ND (ND = Not Detected, or <0.05%) | Unknown Impurities RRT~4.27 (Initial): ND (ND = Not Detected, or <0.05%) | Unknown Impurities RRT~4.99 (Initial): ND (ND = Not Detected, or <0.05%) | pH (Initial): 8.60
